Measurements from patent publication US8492378B2, “GSK-3β inhibitor” (Takeda Pharmaceutical Company Limited, priority 2006, dated 2013).

Experiments:
Assay in all cases: Serine threonine kinase inhibitory activity ([γ-33P]ATP)
Format in all cases: biochemical
IKKβ = molecular target: T1, IKKβ (Homo sapiens, UniProt O14920); conditions: read-out: 50% inhibitory activity against other kinases: IKKβ
T1 sequence (O14920 1-756): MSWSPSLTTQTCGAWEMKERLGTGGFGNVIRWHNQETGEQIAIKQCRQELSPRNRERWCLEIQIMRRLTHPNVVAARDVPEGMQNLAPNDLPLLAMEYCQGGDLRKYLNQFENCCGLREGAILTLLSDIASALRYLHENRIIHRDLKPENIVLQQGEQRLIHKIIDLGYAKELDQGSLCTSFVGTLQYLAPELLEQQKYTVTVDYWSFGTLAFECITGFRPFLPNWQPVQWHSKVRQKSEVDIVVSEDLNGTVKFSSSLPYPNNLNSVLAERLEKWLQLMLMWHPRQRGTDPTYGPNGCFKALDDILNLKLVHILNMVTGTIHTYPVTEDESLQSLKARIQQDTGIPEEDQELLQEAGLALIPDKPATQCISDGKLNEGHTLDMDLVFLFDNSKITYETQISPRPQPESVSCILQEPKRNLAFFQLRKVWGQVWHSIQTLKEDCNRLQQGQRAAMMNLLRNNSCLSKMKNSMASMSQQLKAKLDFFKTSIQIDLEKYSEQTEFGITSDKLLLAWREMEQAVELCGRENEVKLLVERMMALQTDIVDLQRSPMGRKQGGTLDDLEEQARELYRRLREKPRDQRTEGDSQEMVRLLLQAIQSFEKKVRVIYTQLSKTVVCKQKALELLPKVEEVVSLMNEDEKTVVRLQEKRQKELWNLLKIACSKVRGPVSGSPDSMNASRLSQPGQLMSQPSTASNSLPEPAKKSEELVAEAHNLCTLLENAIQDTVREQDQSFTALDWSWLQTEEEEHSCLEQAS
Description: (§1) Inhibitory action on various purified proteins of serine, threonine kinases (p38α, JNK1, IKKβ, ASK1, TAK1, MEKK1, PKCθ, GSK-3β, PLK1, TTK, Aurora A, MEK1, MEK5, B-RAF, ERK1) was examined. As a reaction mixture, 37.5 μL of 25 mM HEPES (pH 7.5), 10 mM magnesium acetate, 1 mM DTT, each concentration of purified protein and a synthesis substrate were used. The mixture was reacted in the presence or absence of a test compound (2.5 μL/the reaction mixture) dissolved in DMSO at each concentration at room temperature for 5 min. Further, 10 μL of a mixture of 2.5 μM ATP and 10 μCi/ml [γ-^33P]ATP (DAIICHI PURE CHEMICALS) was added and the mixture was reacted at room temperature for 30 min. After quenching the reaction, the amount of phosphorylated peptide was measured by Top-Count (Packard). The concentration of the test compound necessary for 50% inhibition (IC50 value) was calculated by PRISM 3.0 (GraphPad Software).

PKCθ = PKCθ (Homo sapiens, UniProt Q04759); conditions: read-out: 50% inhibitory activity against other kinases: PKCθ
Description: as §1

MEK1 = MEK1 (Homo sapiens, UniProt Q02750); conditions: read-out: 50% inhibitory activity against other kinases: MEK1
Description: as §1

ERK1 = ERK1 (Homo sapiens, UniProt P27361); conditions: read-out: 50% inhibitory activity against other kinases: ERK1
Description: as §1

MEK5 = MEK5 (Homo sapiens, UniProt Q13163); conditions: read-out: 50% inhibitory activity against other kinases: MEK5
Description: as §1

p38α = p38α (Homo sapiens, UniProt Q16539); conditions: read-out: 50% inhibitory activity against other kinases: p38α
Description: as §1

B-RAF = B-RAF (Homo sapiens, UniProt P15056); conditions: read-out: 50% inhibitory activity against other kinases: B-RAF
Description: as §1

TTK = molecular target: T2, TTK (Homo sapiens, UniProt P33981); conditions: read-out: 50% inhibitory activity against other kinases: TTK
T2 sequence (P33981 1-857): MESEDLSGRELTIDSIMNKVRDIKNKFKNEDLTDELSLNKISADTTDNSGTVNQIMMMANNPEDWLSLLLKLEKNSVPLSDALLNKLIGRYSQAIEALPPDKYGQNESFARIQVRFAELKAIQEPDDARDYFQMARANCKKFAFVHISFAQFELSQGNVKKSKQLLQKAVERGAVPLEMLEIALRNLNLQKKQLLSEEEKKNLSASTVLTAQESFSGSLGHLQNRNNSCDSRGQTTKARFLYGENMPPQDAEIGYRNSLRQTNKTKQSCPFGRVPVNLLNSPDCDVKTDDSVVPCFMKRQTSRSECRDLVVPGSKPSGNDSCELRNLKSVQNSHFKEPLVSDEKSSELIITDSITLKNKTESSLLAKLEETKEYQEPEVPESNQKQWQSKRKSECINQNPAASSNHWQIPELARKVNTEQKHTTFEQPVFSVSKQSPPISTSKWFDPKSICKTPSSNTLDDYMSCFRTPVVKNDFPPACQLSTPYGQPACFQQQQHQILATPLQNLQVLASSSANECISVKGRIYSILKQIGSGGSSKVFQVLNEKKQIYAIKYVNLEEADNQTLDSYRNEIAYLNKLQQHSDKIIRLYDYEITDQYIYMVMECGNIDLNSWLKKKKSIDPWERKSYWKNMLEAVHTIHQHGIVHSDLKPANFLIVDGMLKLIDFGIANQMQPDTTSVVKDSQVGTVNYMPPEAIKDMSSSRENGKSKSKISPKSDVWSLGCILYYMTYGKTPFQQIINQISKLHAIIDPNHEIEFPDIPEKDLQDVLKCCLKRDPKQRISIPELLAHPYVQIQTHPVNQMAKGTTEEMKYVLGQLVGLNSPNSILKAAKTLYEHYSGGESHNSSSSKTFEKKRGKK
Description: as §1

PLK1 = PLK1 (Homo sapiens, UniProt P53350); conditions: read-out: 50% inhibitory activity against other kinases: PLK1
Description: as §1

MEKK1 = MEKK1 (Homo sapiens, UniProt Q13233); conditions: read-out: 50% inhibitory activity against other kinases: MEKK1
Description: as §1

JNK1 = JNK1 (Homo sapiens, UniProt P45983); conditions: read-out: 50% inhibitory activity against other kinases: JNK1
Description: as §1

TAK1 = TAK1 (Homo sapiens, UniProt O43318); conditions: read-out: 50% inhibitory activity against other kinases: TAK1
Description: as §1

Aurora A = Aurora A (Homo sapiens, UniProt O14965); conditions: read-out: 50% inhibitory activity against other kinases: Aurora A
Description: as §1

ASK1 = ASK1 (Homo sapiens, UniProt Q99683); conditions: read-out: 50% inhibitory activity against other kinases: ASK1
Description: as §1

GSK-3β = GSK-3β (Homo sapiens, UniProt P49841); conditions: [γ-33P]ATP kinase panel; read-out: IC50 values against GSK-3β
Description: as §1, with “Further, 10 μL of a mixture of 2.5 μM ATP and 10 μCi/ml [γ-^33P]ATP (DAIICHI PURE CHEMICALS) was added and the mixture was reacted at room temperature for 30 min.” left out, “(Packard).” for “(Packard). The concentration of the test compound necessary for 50% inhibition (IC50 value) was calculated by PRISM 3.0 (GraphPad Software).”

PKCθ, sequence (Q04759 whole entry): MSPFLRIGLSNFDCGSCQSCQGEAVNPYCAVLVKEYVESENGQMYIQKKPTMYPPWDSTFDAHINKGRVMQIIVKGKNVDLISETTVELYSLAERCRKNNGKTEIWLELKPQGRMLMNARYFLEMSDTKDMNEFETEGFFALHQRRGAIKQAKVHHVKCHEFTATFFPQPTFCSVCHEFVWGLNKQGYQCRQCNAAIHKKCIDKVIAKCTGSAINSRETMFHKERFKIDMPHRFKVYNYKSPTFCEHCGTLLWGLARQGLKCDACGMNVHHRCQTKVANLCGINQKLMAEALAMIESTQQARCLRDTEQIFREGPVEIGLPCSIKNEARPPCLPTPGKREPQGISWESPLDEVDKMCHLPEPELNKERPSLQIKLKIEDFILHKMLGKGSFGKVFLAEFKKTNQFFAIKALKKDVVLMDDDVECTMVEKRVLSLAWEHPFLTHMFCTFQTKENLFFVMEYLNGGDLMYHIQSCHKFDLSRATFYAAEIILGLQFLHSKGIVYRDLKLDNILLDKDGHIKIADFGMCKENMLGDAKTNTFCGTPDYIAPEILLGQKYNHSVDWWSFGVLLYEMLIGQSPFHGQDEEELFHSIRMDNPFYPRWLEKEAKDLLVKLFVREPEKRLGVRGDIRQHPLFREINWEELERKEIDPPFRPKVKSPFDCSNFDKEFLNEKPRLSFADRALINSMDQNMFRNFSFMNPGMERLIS
JNK1, sequence (P45983 whole entry): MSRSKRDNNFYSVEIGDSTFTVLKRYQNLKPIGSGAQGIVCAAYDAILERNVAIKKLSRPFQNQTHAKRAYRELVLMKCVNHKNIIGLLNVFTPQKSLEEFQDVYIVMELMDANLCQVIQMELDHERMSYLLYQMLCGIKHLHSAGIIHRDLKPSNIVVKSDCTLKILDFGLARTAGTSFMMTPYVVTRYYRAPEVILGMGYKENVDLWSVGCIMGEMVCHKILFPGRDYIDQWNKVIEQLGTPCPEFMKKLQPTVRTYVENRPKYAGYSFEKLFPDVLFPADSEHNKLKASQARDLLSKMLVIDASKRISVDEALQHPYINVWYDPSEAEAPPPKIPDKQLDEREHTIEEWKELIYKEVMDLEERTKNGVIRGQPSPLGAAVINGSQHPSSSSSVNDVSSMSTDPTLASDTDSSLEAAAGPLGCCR
ASK1, sequence (Q99683 whole entry): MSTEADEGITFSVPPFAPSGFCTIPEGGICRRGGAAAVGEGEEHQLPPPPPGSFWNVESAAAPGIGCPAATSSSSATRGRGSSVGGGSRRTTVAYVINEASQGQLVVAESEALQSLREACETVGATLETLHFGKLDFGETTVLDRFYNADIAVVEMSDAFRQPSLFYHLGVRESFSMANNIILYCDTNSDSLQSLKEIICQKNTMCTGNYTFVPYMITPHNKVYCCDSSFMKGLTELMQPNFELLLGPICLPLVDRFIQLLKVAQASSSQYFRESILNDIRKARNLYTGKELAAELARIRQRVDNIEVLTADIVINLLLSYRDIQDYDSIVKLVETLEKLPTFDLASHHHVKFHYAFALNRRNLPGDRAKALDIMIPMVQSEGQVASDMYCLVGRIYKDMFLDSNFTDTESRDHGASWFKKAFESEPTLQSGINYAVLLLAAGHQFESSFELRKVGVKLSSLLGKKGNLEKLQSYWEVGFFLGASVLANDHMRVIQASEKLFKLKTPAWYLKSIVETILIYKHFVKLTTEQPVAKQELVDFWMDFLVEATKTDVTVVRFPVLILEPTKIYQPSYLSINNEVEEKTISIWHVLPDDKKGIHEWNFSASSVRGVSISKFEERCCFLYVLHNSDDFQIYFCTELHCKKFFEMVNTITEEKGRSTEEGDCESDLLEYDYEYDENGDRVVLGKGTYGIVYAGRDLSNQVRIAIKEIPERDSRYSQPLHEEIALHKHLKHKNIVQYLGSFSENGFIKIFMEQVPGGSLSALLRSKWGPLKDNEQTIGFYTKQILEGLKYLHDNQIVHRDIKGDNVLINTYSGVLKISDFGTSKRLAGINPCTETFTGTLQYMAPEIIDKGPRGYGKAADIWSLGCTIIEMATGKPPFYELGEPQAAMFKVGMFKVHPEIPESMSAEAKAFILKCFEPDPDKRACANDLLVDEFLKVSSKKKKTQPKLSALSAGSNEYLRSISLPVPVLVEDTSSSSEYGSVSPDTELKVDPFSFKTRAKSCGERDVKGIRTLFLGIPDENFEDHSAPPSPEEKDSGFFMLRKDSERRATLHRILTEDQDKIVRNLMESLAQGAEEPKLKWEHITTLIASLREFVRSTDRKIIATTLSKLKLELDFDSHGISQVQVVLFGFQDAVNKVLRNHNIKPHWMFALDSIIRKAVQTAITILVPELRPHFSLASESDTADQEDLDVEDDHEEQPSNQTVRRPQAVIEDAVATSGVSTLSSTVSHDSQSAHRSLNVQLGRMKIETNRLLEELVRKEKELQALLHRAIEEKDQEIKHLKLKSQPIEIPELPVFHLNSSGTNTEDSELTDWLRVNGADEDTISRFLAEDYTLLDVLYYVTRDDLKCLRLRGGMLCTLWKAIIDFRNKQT
MEK1, sequence (Q02750 whole entry): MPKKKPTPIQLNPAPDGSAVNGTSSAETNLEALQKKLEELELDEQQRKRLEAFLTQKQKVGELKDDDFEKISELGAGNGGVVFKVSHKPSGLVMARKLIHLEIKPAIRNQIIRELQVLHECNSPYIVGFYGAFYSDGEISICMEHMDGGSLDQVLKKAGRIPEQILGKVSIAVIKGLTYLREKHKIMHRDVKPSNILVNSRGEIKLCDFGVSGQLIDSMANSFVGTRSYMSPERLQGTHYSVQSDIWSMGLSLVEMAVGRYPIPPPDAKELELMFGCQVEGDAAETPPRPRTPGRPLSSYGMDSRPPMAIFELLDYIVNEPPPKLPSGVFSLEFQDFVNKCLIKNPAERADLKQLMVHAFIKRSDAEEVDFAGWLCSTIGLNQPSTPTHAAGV
B-RAF, sequence (P15056 whole entry): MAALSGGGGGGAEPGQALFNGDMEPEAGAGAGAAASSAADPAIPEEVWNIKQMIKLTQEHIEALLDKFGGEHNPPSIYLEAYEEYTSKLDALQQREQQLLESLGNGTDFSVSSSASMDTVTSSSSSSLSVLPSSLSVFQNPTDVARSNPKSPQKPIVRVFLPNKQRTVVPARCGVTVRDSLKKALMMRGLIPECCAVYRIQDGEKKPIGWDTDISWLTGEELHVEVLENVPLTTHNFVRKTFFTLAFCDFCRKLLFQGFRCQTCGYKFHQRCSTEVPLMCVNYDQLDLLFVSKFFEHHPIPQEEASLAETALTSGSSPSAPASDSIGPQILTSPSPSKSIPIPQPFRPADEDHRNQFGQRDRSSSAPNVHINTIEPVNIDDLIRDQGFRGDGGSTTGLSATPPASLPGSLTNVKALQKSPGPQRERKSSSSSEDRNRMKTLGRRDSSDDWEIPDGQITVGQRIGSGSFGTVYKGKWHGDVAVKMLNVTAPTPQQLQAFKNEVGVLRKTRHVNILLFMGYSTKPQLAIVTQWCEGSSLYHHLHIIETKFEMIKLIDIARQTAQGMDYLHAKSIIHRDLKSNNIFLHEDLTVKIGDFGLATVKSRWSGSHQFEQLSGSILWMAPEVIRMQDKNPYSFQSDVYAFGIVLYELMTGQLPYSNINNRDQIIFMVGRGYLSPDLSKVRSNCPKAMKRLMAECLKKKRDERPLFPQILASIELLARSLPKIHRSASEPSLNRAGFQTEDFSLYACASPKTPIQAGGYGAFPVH
p38α, sequence (Q16539 whole entry): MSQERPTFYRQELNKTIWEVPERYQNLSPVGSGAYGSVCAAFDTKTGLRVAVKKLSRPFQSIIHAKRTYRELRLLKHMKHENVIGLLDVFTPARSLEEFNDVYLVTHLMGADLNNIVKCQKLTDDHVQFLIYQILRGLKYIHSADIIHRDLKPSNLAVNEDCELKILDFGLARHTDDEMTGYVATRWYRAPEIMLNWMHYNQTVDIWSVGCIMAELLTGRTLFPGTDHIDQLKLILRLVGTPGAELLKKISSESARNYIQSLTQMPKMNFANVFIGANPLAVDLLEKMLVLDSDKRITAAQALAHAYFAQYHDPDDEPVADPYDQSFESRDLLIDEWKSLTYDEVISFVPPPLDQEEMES
Aurora A, sequence (O14965 whole entry): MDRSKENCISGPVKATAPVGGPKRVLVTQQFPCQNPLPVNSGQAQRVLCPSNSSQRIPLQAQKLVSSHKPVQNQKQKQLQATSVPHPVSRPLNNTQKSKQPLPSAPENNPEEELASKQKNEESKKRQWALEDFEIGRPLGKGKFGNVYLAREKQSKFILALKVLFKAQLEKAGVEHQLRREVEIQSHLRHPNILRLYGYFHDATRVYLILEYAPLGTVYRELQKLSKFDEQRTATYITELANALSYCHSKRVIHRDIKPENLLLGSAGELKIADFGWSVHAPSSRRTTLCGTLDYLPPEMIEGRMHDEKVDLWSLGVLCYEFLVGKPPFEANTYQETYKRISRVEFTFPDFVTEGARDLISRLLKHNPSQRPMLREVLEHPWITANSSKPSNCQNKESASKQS
ERK1, sequence (P27361 whole entry): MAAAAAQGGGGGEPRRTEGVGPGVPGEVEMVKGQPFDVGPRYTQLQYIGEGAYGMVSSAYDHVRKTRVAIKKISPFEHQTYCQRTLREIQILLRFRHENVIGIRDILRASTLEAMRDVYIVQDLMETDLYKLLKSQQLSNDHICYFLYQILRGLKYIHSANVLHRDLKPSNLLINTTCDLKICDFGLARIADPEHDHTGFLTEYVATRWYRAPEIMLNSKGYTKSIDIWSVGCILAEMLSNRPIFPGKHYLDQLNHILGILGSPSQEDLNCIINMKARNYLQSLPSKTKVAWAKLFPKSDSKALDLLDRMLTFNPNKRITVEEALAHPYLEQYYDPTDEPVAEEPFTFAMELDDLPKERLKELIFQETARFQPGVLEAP

| Structure (SMILES) | IC50 (IKKβ) | IC50 (PKCθ) | IC50 (MEK1) | IC50 (ERK1) | IC50 (MEK5) | IC50 (p38α) | IC50 (B-RAF) | IC50 (TTK) | IC50 (PLK1) | IC50 (MEKK1) | IC50 (JNK1) | IC50 (TAK1) | IC50 (Aurora A) | IC50 (ASK1) | IC50 (GSK-3β) |
| --- | --- | --- | --- | --- | --- | --- | --- | --- | --- | --- | --- | --- | --- | --- | --- |
| COc1ccc(CSc2nnc(-c3ccc4c(c3)OCO4)o2)cc1F [Reference Example 71, 2-(1,3-benzodioxol-5-yl)-5-[(3-fluoro-4-methoxybenzyl)thio]-1,3,4-oxadiazole, reference compound] | > 10 µM | > 10 µM | > 10 µM | > 10 µM | > 10 µM | > 10 µM | > 10 µM | > 10 µM | > 10 µM | > 10 µM | > 10 µM | > 10 µM | > 10 µM | > 10 µM |  |
| COc1ccc(CSc2nnc(-c3ccnc(N)c3)o2)cc1F [Example 209, 4-[5-[(3-fluoro-4-methoxybenzyl)thio]-1,3,4-oxadiazol-2-yl]pyridin-2-amine] | > 10 µM | > 10 µM | > 10 µM | > 10 µM | > 10 µM | > 10 µM | > 10 µM | > 10 µM | > 10 µM | > 10 µM | > 10 µM | > 10 µM | > 10 µM | > 10 µM | 0.14 µM |
| COc1ccc(-c2coc3ccc(-c4nnc(SC)o4)cc23)cc1 [Example 165, 2-[3-(4-methoxyphenyl)-1-benzofuran-5-yl]-5-(methylthio)-1,3,4-oxadiazole] | > 10 µM | > 10 µM | > 10 µM | > 10 µM | > 10 µM | > 10 µM | > 10 µM | > 10 µM | > 10 µM | > 10 µM | > 10 µM | > 10 µM | > 10 µM | > 10 µM | 0.19 µM |
